From article PMC3448795 (Biochemistry, 2012)
Like-named read-outs stand apart in the source and are kept apart here. Peptide text beside a SMILES is read from it.

How the values were obtained:
human S100B [1] = biological target: T1, human S100B (Homo sapiens, UniProt P04271); test: Isothermal titration calorimetry; assay type: binding
T1 sequence (P04271 2-92 limits assumed): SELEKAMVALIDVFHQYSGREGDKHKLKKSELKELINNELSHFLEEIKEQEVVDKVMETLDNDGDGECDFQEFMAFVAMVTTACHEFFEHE

human S100B [2] = biological target: T1, human S100B; test: NMR 1H-15N HSQC titration with LineShapeKin line shape analysis; assay type: binding; settings: for Kon (Table 3) / Kon (Table 4) / Kon (Table 2): low salt; for Kon (Table 2): Kd from ITC
[3] = calculated from Kd and Koff of Table 3
[4] = calculated from Kd and Koff of Table 4
[5] = calculated from Kd and Koff, 35°C

Row | SMILES | Kd (human S100B [1]) | Kon (Table 3) (human S100B [2]; [3]) | Kon (Table 4) (human S100B [2]; [4]) | Kon (Table 2) (human S100B [2]; [5]) | kon (human S100B [2]; read-out: Kon (text, Table 2 analysis)) | Kon, first peptide binding event (human S100B [2]; bounds from simulated Koff and ITC Kd1) | Kon, second peptide binding event (human S100B [2]; bounds from simulated Koff and ITC Kd2) | ΔCp, exp, high salt (human S100B [1]; slope of ΔHcal versus temperature, ITC, buffer plus 120 mM NaCl) | Kd (human S100B [2]; Kd, App (Table 4), high salt, LineShapeKin, NMR only, 35°C, from 2D matrix) | Kon (Table 3), high salt (human S100B [2]; calculated from Kd and Koff of Table 3, high salt) | Kon (Table 4), high salt (human S100B [2]; calculated from Kd and Koff of Table 4, high salt) | Kon (Table 2), high salt (human S100B [2]; calculated from Kd and Koff, 35°C, high salt) | koff (human S100B [2]; read-out: Koff (Table 3), high salt, LineShapeKin, NMR only, 35°C, high salt) | koff (human S100B [2]; read-out: Koff (Table 4), high salt, LineShapeKin, NMR only, 35°C, high salt, from 2D matrix) | kon (human S100B [2]; read-out: Kon (text, Table 3 analysis))
1 | CC(=O)N[C@@H](CCC(=O)O)C(=O)N[C@H](C(=O)N[C@@H](CC(C)C)C(=O)N[C@H](C(=O)N[C@@H](CCCNC(=N)N)C(=O)N1CCC[C@H]1C(=O)N[C@@H](CCCCN)C(=O)N1CCC[C@H]1C(=O)N[C@@H](CC(C)C)C(=O)N[C@@H](CC(C)C)C(=O)N[C@@H](CC(C)C)C(=O)N[C@@H](CCCCN)C(=O)N[C@@H](CC(C)C)C(=O)N[C@@H](CC(C)C)C(=O)N[C@@H](CCCCN)C(=O)N[C@@H](CO)C(=O)N[C@H](C(=O)NCC(=O)N[C@@H](C)C(=O)N[C@@H](Cc1ccc(O)cc1)C(N)=O)C(C)C)C(C)C)[C@@H](C)O [HDM2] (Ac-ETLVRPKPLLLKLLKSVGAY-NH2) | 500 ± 200 nM | 160 ± 70 1×10^7 M^-1 s^-1 | 100 ± 40 1×10^7 M^-1 s^-1 | 30 ± 11 1×10^7 M^-1 s^-1 | 2.8e+08 M⁻¹ s⁻¹ |  |  |  |  |  |  |  |  |  | 
2 | CC[C@H](C)[C@H](NC(=O)[C@H](CCCCN)NC(=O)[C@H](CC(C)C)NC(=O)[C@H](CC(C)C)NC(=O)[C@@H]1CCCN1C(=O)[C@H](CC(C)C)NC(=O)[C@H](CCCCN)NC(=O)[C@@H]1CCCN1C(=O)[C@H](CCCNC(=N)N)NC(=O)[C@@H](NC(=O)[C@H](CCC(N)=O)NC(=O)[C@H](CC(N)=O)NC(C)=O)C(C)C)C(=O)N[C@@H](CC(C)C)C(=O)N[C@@H](Cc1c[nH]cn1)C(=O)N[C@@H](C)C(=O)N[C@@H](C)C(=O)NCC(=O)N[C@@H](C)C(=O)N[C@@H](CCC(N)=O)C(=O)N[C@@H](Cc1ccc(O)cc1)C(N)=O [HDM4] (Ac-NQVRPKLPLLKILHAAGAQY-NH2) | 70 ± 30 nM | 3 ± 1 1×10^7 M^-1 s^-1 |  |  |  |  |  |  |  |  |  |  |  |  | 
3 | CC(=O)N[C@@H](CCCCN)C(=O)N[C@@H](CCCNC(=N)N)C(=O)N[C@@H](CC(C)C)C(=O)N[C@@H](CCCNC(=N)N)C(=O)N[C@@H](CCCNC(=N)N)C(=O)N[C@@H](CO)C(=O)N[C@@H](C)C(=O)N[C@@H](Cc1c[nH]cn1)C(=O)N[C@@H](C)C(=O)N[C@@H](CCCNC(=N)N)C(=O)N[C@@H](CCCCN)C(=O)N[C@@H](CCC(=O)O)C(=O)N[C@H](C(=O)N[C@@H](CCC(=O)O)C(=O)N[C@@H](Cc1ccccc1)C(=O)N[C@@H](CC(C)C)C(=O)N[C@@H](CCCNC(=N)N)C(=O)N[C@@H](CC(C)C)C(=O)N[C@@H](CCCCN)C(=O)N[C@@H](CCCNC(=N)N)C(=O)N[C@H](C(=O)N[C@@H](CCCNC(=N)N)C(=O)N[C@@H](CC(C)C)C(=O)NCC(=O)N[C@@H](CC(C)C)C(=O)N[C@@H](CCC(=O)O)C(=O)N[C@@H](Cc1ccc(O)cc1)C(N)=O)[C@@H](C)O)[C@@H](C)O [NDR] (Ac-KRLRRSAHARKETEFLRLKRTRLGLEY-NH2) |  |  |  |  |  | 13-63 1×10^7 M^-1 s^-1 | 1-10 1×10^7 M^-1 s^-1 |  |  |  |  |  |  |  | 
4 | CSCC[C@H](NC(=O)[C@H](CC(C)C)NC(=O)[C@H](CCCCN)NC(=O)[C@H](CCCCN)NC(=O)[C@H](Cc1c[nH]cn1)NC(=O)[C@H](CCCNC(=N)N)NC(=O)[C@H](CO)NC(=O)[C@@H](NC(=O)[C@H](CO)NC(=O)[C@H](CCC(N)=O)NC(=O)CNC(=O)[C@H](CCCCN)NC(=O)[C@H](CCCCN)NC(=O)[C@H](CO)NC(=O)[C@H](CCCCN)NC(=O)[C@H](CC(C)C)NC(=O)[C@H](Cc1c[nH]cn1)NC(=O)[C@H](CO)NC(=O)[C@H](Cc1ccc(O)cc1)NC(C)=O)[C@@H](C)O)C(=O)N[C@@H](Cc1ccccc1)C(=O)N[C@@H](CCCCN)C(=O)N[C@H](C(=O)N[C@@H](CCC(=O)O)C(N)=O)[C@@H](C)O [p53] | 2000 ± 1000 nM | 80 ± 30 1×10^7 M^-1 s^-1 | 100 ± 40 1×10^7 M^-1 s^-1 | 40 ± 16 1×10^7 M^-1 s^-1 |  |  |  | -1.2 ± 0.3 kJ·mol^-1 K^-1 | 10000 ± 2000 nM | 7.5 ± 1.5 1×10^7 M^-1 s^-1 | 10 ± 2 1×10^7 M^-1 s^-1 | 3 ± 1 1×10^7 M^-1 s^-1 | 750 ± 150 s⁻¹ | 1000 ± 200 s⁻¹ | 8e+08 M⁻¹ s⁻¹
